Like-named read-outs stand apart in the source and are kept apart here.

The target of test [1] is BACE 1 (Beta Secretase enzyme) (Homo sapiens, UniProt P56817). Briefly: In vitro enzymatic BACE FRET assay. The class given is biochemical. Set-up: BACE 1 FRET assay (uM): scale not given here. As to the method:
In Vitro Enzymatic BACE FRET (Fluorescence Resonance Energy Transfer) Assay (Enzyme Assay Data in Table 1)
The assay buffer used in this screen is 0.05 M acetate, pH 4.2, 10% DMSO final, 100 uM genapol (which is a nonionic detergent, below its Critical Micelle Concentration). […] The assay is effectively started by the addition of FRET substrate (50 nM) and the combination is incubated for one hour. The FRET assay is terminated with by addition of Tris buffer, which raises the pH to neutrality, and the fluorescence is determined. The FRET substrate is a peptide with commercially available fluorophore and quencher, on opposite sides of the BACE cleavage site.

Test [2] has as its system Aβ40 in conditioned medium of cells stably expressing Amyloid Precursor Protein (APP). Description: In vitro BACE cell-based assay (HEK cell assay), Aβ40 sandwich ELISA. Conditions: Homo sapiens. As to the method: In Vitro BACE Cell-Based Assay:
The cell-based assay measures inhibition or reduction of Aβ40 in conditioned medium of test compound treated cells expressing amyloid precursor protein.
Cells stably expressing Amyloid Precursor Protein (APP) were plated at a density of 40K cells/well in 96 well plates (Costar). The cells were cultivated for 24 hours at 37° C. and 5% CO2 in DMEM supplemented with 10% FBS. The test compounds were then added to cells in 10-point dose response concentrations with the starting concentration being either 100 μM or 10 μM. The compounds were diluted from stock solutions in DMSO and the final DMSO concentration of the test compounds on cells was 0.1%. After 24 h of incubation with the test compounds the supernatant conditioned media was collected and the Aβ 40 levels were determined using a sandwich ELISA. The IC50 of the compound was calculated from the percent of control or percent inhibition of Aβ 40 as a function of the concentration of the test compound.
The sandwich ELISA to detect Aβ 40 was performed in 96 well microtiter plates, which were pre-treated with goat anti-rabbit IgG (Pierce). The capture and detecting antibody pair that were used to detect Aβ 40 from cell supernatants were affinity purified pAb40 (Biosource) and biotinylated 6E10 (Signet Labs Inc.), respectively. The optimal concentration for the pAb40 antibody was 3 μg/ml in Superblock/TBS (Pierce) that was supplemented with 0.05% Tween 20 (Sigma).
Cellular supernatants were incubated with the capture antibody for 3 h at 4° C., followed by 3 wash steps in TBS-tween (0.05%). The detecting antibody incubation was for 2 h at 4° C., again followed by the wash steps as described previously. The final readout of the ELISA is Time-Resolved Fluorescence (counts per minute) using Delfia reagents Streptavidin-Europium and Enhancement solutions (Perkin Elmer) and the Victor 2 multilabel counter (Perkin Elmer).

Setting [3] is: IC50 range symbols, Table 1, read-out: BACE 1 FRET assay.
The mark [4] stands for this setting: HEK293, 24 h, IC50 range symbols, Table 1, Aβ40, 24 h incubation, read-out: HEK cell assay.
Setting [5] is: bound stated, read-out: IC50 value in the FRET BACE enzyme assay.
Setting [6] is: HEK293, bound stated in text, read-out: IC50 value in the BACE cell-based in-vitro assay.

Sequence of BACE 1 (Beta Secretase enzyme) (P56817 46-501, species assumed): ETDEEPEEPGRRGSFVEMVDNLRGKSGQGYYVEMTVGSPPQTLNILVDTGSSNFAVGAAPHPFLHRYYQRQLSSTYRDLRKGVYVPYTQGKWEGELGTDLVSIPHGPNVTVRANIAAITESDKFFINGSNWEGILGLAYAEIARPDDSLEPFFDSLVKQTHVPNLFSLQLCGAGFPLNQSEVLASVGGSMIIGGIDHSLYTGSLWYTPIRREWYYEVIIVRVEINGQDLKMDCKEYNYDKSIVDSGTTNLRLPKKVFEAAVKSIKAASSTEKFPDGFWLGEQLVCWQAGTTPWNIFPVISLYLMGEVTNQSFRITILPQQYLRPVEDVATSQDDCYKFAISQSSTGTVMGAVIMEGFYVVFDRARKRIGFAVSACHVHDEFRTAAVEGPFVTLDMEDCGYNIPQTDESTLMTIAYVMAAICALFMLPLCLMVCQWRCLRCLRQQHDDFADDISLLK

Take `Nc1nc2ccc(-c3cscn3)cc2cc1CCC(=O)NCC1CCCCC1` [Example 2, 3-(2-amino-6-(thiazol-4-yl)quinolin-3-yl)-N-(cyclohexylmethyl)propanamide]: the IC50 was 1 to 5 µM in test [1] (setting [3]) and greater than 5 µM in test [2] (setting [4]).
In the case of `Nc1nc2ccc(-c3ccccc3Cl)cc2cc1CCC(=O)NCC1CCCCC1` [Example 3, 3-(2-amino-6-(2-chlorophenyl)quinolin-3-yl)-N-(cyclohexylmethyl)propanamide], the IC50 in test [1] (setting [3]) was less than 0.5 µM; in test [2] (setting [4]) it was 1 to 5 µM.
The matching figures for `Cc1nccn1-c1ccc2nc(N)c(CCC(=O)NCC3CCCCC3)cc2c1` [Example 4, 3-(2-amino-6-(2-methyl-1H-imidazol-1-yl)quinolin-3-yl)-N-(cyclohexylmethyl)propanamide]: greater than 5 µM and greater than 5 µM.
The matching figures for `Cc1ccccc1-c1ccc2nc(N)c(C(C)CC(=O)NCC3CCCCC3)cc2c1` (stereo not shown) [Example 6, 3-(2-amino-6-o-tolylquinolin-3-yl)-N-(cyclohexylmethyl)butanamide]: less than 0.5 µM and greater than 5 µM.
The matching figures for `CC(Cc1cc2cc(C3CC3C)ccc2nc1N)C(=O)NCCC(C)(C)C` (stereo not shown) [Example 7, 3-(2-amino-6-(2-methylcyclopropyl)quinolin-3-yl)-N-(3,3-dimethylbutyl)-2-methylpropanamide]: less than 0.5 µM and 1 to 5 µM.
Turning to `CNC(=O)[C@H](C)Cc1cc2cc(-c3c(C)cccc3C(=O)N3CCCC3)ccc2nc1N` [Example 9, (R)-3-(2-amino-6-(2-methyl-6-(pyrrolidine-1-carbonyl)phenyl)quinolin-3-yl)-N,2-dimethylpropanamide], the IC50 in test [1] (setting [3]) was less than 0.5 µM; in test [1] (setting [5]), less than 0.05 µM; in test [2] (setting [4]) it was less than 0.5 µM; in test [2] (setting [6]), less than 0.1 µM.
Regarding `CC(Cc1cc2cc(-c3cccc(Cl)c3)ccc2nc1N)C(=O)NC1CCOC2(CCC2)C1` (stereo not shown) [Example 11, 3-(2-amino-6-(3-chlorophenyl)-3-quinolinyl)-2-methyl-N-(5-oxaspiro[3,5]non-8-yl)propanamide], the values for the IC50 in test [1] (setting [3]), in test [1] (setting [5]) and in test [2] (setting [4]) were less than 0.5 µM, less than 0.05 µM and less than 0.5 µM, respectively.
For the compound `Cc1ccccc1-c1ccc2nc(N)c(C[C@@H](C)C(=O)NC3C[C@@H](C)O[C@@H](C)C3)cc2c1` (stereo partly drawn) [Example 12, (2R)-3-(2-amino-6-o-tolylquinolin-3-yl)-N-(cis-2,6-dimethyltetrahydro-2H-pyran-4-yl)-2-methylpropanamide], the IC50 in test [1] (setting [3]) was less than 0.5 µM; in test [1] (setting [5]) it was less than 0.05 µM; in test [2] (setting [4]), less than 0.5 µM; in test [2] (setting [6]), less than 0.1 µM.
Regarding `Cc1ccccc1-c1ccc2nc(N)c(CCC(=O)NC3CCOCC3)cc2c1` [Example 15, 3-(2-amino-6-o-tolylquinolin-3-yl)-N-(tetrahydro-2H-pyran-4-yl)propanamide], the IC50 in test [1] (setting [3]) is less than 0.5 µM; in test [2] (setting [4]) it was greater than 5 µM.
The matching figures for `Cc1ccccc1-c1ccc2nc(N)c(CCC(=O)NCC3CCCO3)cc2c1` (stereo not shown) [Example 17, 3-(2-amino-6-o-tolylquinolin-3-yl)-N-((tetrahydrofuran-2-yl)methyl)propanamide]: less than 0.5 µM and greater than 5 µM.
`COCCNC(=O)CCc1cc2cc(-c3ccccc3C)ccc2nc1N` [Example 18, 3-(2-amino-6-o-tolylquinolin-3-yl)-N-(2-methoxyethyl)propanamide]: the IC50 was less than 0.5 µM in test [1] (setting [3]) and greater than 5 µM in test [2] (setting [4]).
The matching figures for `Cc1ccccc1-c1ccc2nc(N)c(CCC(=O)NCC3CCOCC3)cc2c1` [Example 19, 3-(2-amino-6-o-tolylquinolin-3-yl)-N-((tetrahydro-2H-pyran-4-yl)methyl)propanamide]: less than 0.5 µM and 1 to 5 µM.
With `Cc1ccccc1-c1ccc2nc(N)c(CCC(=O)NCC(C)(C)C)cc2c1` [Example 21, 3-(2-amino-6-o-tolylquinolin-3-yl)-N-neopentylpropanamide], the IC50 was less than 0.5 µM in test [1] (setting [3]) and greater than 5 µM in test [2] (setting [4]).
For `Cc1ccccc1-c1ccc2nc(N)c(CCC(=O)NCc3ccccc3)cc2c1` [Example 23, 3-(2-amino-6-o-tolylquinolin-3-yl)-N-benzylpropanamide], the IC50 in test [1] (setting [3]) and in test [2] (setting [4]) was less than 0.5 µM each time.
For the compound `Cc1ccccc1-c1ccc2nc(N)c(CCC(=O)NCCC3CCCCC3)cc2c1` [Example 24, 3-(2-amino-6-o-tolylquinolin-3-yl)-N-(2-cyclohexylethyl)propanamide], the IC50 in test [1] (setting [3]) and in test [2] (setting [4]) was less than 0.5 µM throughout.
As to `Cc1ccccc1-c1ccc2nc(N)c(CCC(=O)Nc3ccccc3)cc2c1` [Example 25, 3-(2-amino-6-o-tolylquinolin-3-yl)-N-phenylpropanamide], the IC50 is less than 0.5 µM in test [1] (setting [3]) and 0.5 to 1 µM in test [2] (setting [4]).
With `Nc1nc2ccc(-c3cccnc3)cc2cc1CCC(=O)NCC1CCCCC1` [Example 34, 3-(2-amino-6-(pyridin-3-yl)quinolin-3-yl)-N-(cyclohexylmethyl)propanamide], the “BACE 1 FRET assay (uM)” value in test [1] (IC50 range symbols, Table 1) is recorded as “_++”. Also, the IC50 in test [2] (setting [4]) lay within 1 to 5 µM.
Regarding `Cc1ncccc1-c1ccc2nc(N)c(CCC(=O)NCC3CCCCC3)cc2c1` [Example 38, 3-(2-amino-6-(2-methylpyridin-3-yl)quinolin-3-yl)-N-(cyclohexylmethyl)propanamide], the results for the IC50 in test [1] (setting [3]) and in test [2] (setting [4]) were 0.5 to 1 µM and greater than 5 µM, respectively.
The matching figures for `Cc1ccccc1-c1ccc2nc(N)c(CCC(=O)NC3CCCN(C)C3)cc2c1` (stereo not shown) [Example 39, 3-(2-amino-6-o-tolylquinolin-3-yl)-N-(1-methylpiperidin-3-yl)propanamide]: 1 to 5 µM and 1 to 5 µM.
The matching figures for `Cc1ccccc1-c1ccc2nc(N)c(CCC(=O)NCC3CCCCO3)cc2c1` (stereo not shown) [Example 40, 3-(2-amino-6-o-tolylquinolin-3-yl)-N-((tetrahydro-2H-pyran-2-yl)methyl)propanamide]: less than 0.5 µM and 1 to 5 µM.
The matching figures for `N#Cc1ccccc1-c1ccc2nc(N)c(CCC(=O)NCC3CCCCC3)cc2c1` [Example 41, 3-(2-amino-6-(2-cyanophenyl)quinolin-3-yl)-N-(cyclohexylmethyl)propanamide]: less than 0.5 µM and 1 to 5 µM.
For the compound `Nc1nc2ccc(-c3ccccc3F)cc2cc1CCC(=O)NCC1CCCCC1` [Example 42, 3-(2-amino-6-(2-fluorophenyl)quinolin-3-yl)-N-(cyclohexylmethyl)propanamide], the values for the IC50 in test [1] (setting [3]) and in test [2] (setting [4]) were less than 0.5 µM and greater than 5 µM, respectively.
The matching figures for `Nc1nc2ccc(-c3cccc(F)c3)cc2cc1CCC(=O)NCC1CCCCC1` [Example 43, 3-(2-amino-6-(3-fluorophenyl)quinolin-3-yl)-N-(cyclohexylmethyl)propanamide]: 0.5 to 1 µM and 1 to 5 µM.
The matching figures for `COc1ccccc1-c1ccc2nc(N)c(CCC(=O)NCC3CCCCC3)cc2c1` [Example 44, 3-(2-amino-6-(2-methoxyphenyl)quinolin-3-yl)-N-(cyclohexylmethyl)propanamide]: less than 0.5 µM and 1 to 5 µM.
On to `Nc1nc2ccc(-c3ccccc3)cc2cc1CCC(=O)NCC1CCCCC1` [Example 45, 3-(2-amino-6-phenylquinolin-3-yl)-N-(cyclohexylmethyl)propanamide], for which the figures for the IC50 in test [1] (setting [3]) and in test [2] (setting [4]) were 0.5 to 1 µM and greater than 5 µM, respectively.
As to `Cc1ccncc1-c1ccc2nc(N)c(CCC(=O)NCC3CCCCC3)cc2c1` [Example 46, 3-(2-amino-6-(4-methylpyridin-3-yl)quinolin-3-yl)-N-(cyclohexylmethyl)propanamide], the IC50 in test [1] (setting [3]) was 1 to 5 µM; in test [2] (setting [4]) it was greater than 5 µM.
The matching figures for `Cc1ccccc1-c1ccc2nc(N)c(CC(C)C(=O)N[C@H](C)C3CCCCC3)cc2c1` (stereo partly drawn) [Example 47, 3-(2-amino-6-o-tolylquinolin-3-yl)-N-((R)-1-cyclohexylethyl)-2-methylpropanamide]: less than 0.5 µM and 1 to 5 µM.
With `Cc1ccccc1-c1ccc2nc(N)c(CCCNC(=O)C3CCCCC3)cc2c1` [Example 48, N-(3-(2-amino-6-o-tolylquinolin-3-yl)propyl)cyclohexanecarboxamide], the IC50 is less than 0.5 µM in test [1] (setting [3]) and 1 to 5 µM in test [2] (setting [4]).

These data come from patent US9296698B2, “Amino heteroaryl compounds as beta-secretase modulators and methods of use” (Amgen Inc., priority 2009, dated 2016).
